# US20220152117A1, “METHODS OF PROMOTING CELLULAR MATURATION WITH AMPK ACTIVATORS” (UNIVERSITY OF WASHINGTON, priority 2019, published 2022)
# Entries after “also recorded” stand apart in the source; their conditions may differ.
# Key:
# [1] = tested on: cardiomyocytes from ARVD/C hiPSCs; assay: TUNEL cell viability assay, cardiomyocytes from mutant PKP2 (ARVD/C) hiPSCs; assay type: cell-based, human; conditions: two weeks treatment, TUNEL with α-actinin co-stain
# Method: The normal and mutant Plakophilin 2 (PKP2) cells were generated as described previously^37. Induced pluripotent cells were cultured with E8 medium in Matrigel® coated plates. Cardiomyocytes were obtained using a protocol based on Lian et al^38 that involves Wnt agonist CHIR 99021 in the early stages of differentiation followed by the Wnt antagonist IWP2 under monolayer condition. Before Day 7, cells were cultured in RPMI plus B27 without insulin while on Day 7 and afterwards, EB media (KO-DMEM with 2% FBS, 1 mM NEAAs, 1× GlutaMAX, 1 mM mercaptoethanol, and penicillin/streptomycin) was used. At 30 days of differentiation, beating EBs were treated with three factors (3F) (50 μg/ml insulin, 0.5 μM dexamethasone, and 0.25 mM IBMX) or five factors (5F) (3F plus PPAR-γ agonists 5 μM rosiglitazone and 200 μM indomethacin) media as described earlier or treated with 1 mM AICAR or AICAR plus rosiglitazone and indomethacin for two weeks. TUNEL staining with In Situ Cell Death Detection Kit TMR Red™ (Roche®) was used to assess cell viability after conducting different treatment. TUNEL staining was co-stained with anti-α-actinin antibody so that cardiomyocyte-specific apoptosis could be assessed.
# L6 myotube = conditions: literature study (ref 44); cited from earlier work
smiles,measurement,setting,value
"NC(=O)c1ncn([C@@H]2O[C@H](CO)[C@@H](O)[C@H]2O)c1N [AICAR, 5-amino-4-imidazolecarboxamide riboside-1-β-D-ribofuranoside]",apoptosis / cell death in cardiomyocytes from ARVD/C (mutant PKP2) hiPSCs,[1],induced significant apoptosis; also recorded: induced significant cell death
same,ERK phosphorylation in L6 myotube,L6 myotube,leads to ERK phosphorylation
